# Experimental data: ChEMBL document CHEMBL5528063, “Antitrypanosomal Chloronitrobenzamides” (J Med Chem, 2024)
# pEC50: −log10 of the molar value. Calls of active or inactive are those of the source. The rule behind the calls is not given here.
# What was measured:
# [1] = test system: Trypanosoma brucei brucei; test: Antitrypanosomal activity against Trypanosoma brucei brucei 427 assessed as inhibition of parasite proliferation incubated for 48 hrs by CellTiter-Glo luminescent assay; assay type: functional, organism-based; conditions: Trypanosoma brucei, 427, 48 h
# [2] = Cytotoxicity against human BJ cells assessed as inhibition of cell growth incubated for 72 hrs by CellTiter-Glo luminescence assay; assay type: toxicity, cell-based
# [3] = Metabolic stability in […] mouse liver microsomes assessed as half-life at 20 uM measured after 2 hrs by UPLC-MS analysis; assay type: ADME, Microsome
# [4] = Aqueous solubility of compound in 1-propanol at pH 7.4 incubated for 18 hrs by UV spectrum analysis; assay type: physicochemical; conditions: 1-propanol (aqueous, pH 7.4), pH 7.4
# [5] = Metabolic stability in […] mouse liver microsomes assessed as intrinsic clearance at 20 uM measured after 2 hrs by UPLC-MS analysis; assay type: ADME, Microsome; conditions: read-out: CLH
# [6] = Metabolic stability in rat liver microsomes assessed as half-life at 20 uM; assay type: ADME, Microsome
# [7] = Metabolic stability in rat liver microsomes assessed as intrinsic clearance at 20 uM; assay type: ADME, Microsome; conditions: read-out: CLH
# [8] = Metabolic stability in human liver microsomes assessed as half-life at 20 uM incubated for 2 hrs by UPLC-MS analysis; assay type: ADME, Microsome
# [9] = Metabolic stability in human liver microsomes assessed as intrinsic clearance at 20 uM incubated for 2 hrs by UPLC-MS analysis; assay type: ADME, Microsome; conditions: read-out: CLH
# [10] = test system: Trypanosoma congolense; test: Antitrypanosomal activity against Trypanosoma congolense IL3000 assessed as inhibition of parasite proliferation incubated for 69 hrs by resazurin dye based microplate fluorometric analysis; assay type: functional, organism-based; conditions: IL3000, 69 h
# [11] = test system: Trypanosoma vivax; test: Antitrypanosomal activity against Trypanosoma vivax STIB 719/ ILRAD 560 assessed as inhibition of parasite proliferation incubated for 45 hrs by resazurin dye based microplate fluorometric analysis; assay type: functional, organism-based; conditions: STIB 719/ ILRAD 560, 45 h
# [12] = test system: Raji; test: Cytotoxicity against human Raji cells assessed as inhibition of cell growth incubated for 72 hrs by CellTiter-Glo luminescence assay; assay type: functional, cell-based
# [13] = test system: HepG2; test: Cytotoxicity against human HepG2 cells assessed as inhibition of cell growth incubated for 72 hrs by CellTiter-Glo luminescence assay; assay type: functional, cell-based; conditions: HepG2, 72 h
# [14] = Cytotoxicity against HEK293 cells assessed as inhibition of cell growth incubated for 72 hrs by CellTiter-Glo luminescence assay; assay type: toxicity, cell-based; conditions: human
# [15] = Stability in mouse plasma assessed as half-life measured after 24 hrs by UPLC-MS analysis; assay type: ADME, cell-free
# [16] = Stability in rat plasma assessed as half-life measured after 24 hrs by UPLC-MS analysis; assay type: ADME, cell-free
# [17] = Stability in human plasma assessed as half-life measured after 24 hrs by UPLC-MS analysis; assay type: ADME, cell-free
# [18] = Protein binding in mouse plasma at 20 uM incubated for 18 hrs by UPLC-MS analysis; assay type: ADME, cell-free; conditions: read-out: PPB (converted)
# [19] = Protein binding in rat plasma at 20 uM incubated for 18 hrs by UPLC-MS analysis; assay type: ADME, cell-free; conditions: read-out: PPB (converted)
# [20] = Protein binding in human plasma at 20 uM incubated for 18 hrs by UPLC-MS analysis; assay type: ADME, cell-free; conditions: read-out: PPB (converted)
# [21] = Permeability of compound at pH 7.4 incubated for 30 mins by PAMPA-GIT assay; assay type: ADME; conditions: read-out: permeability
# [22] = Efflux ratio of apparent permeability from basolateral to apical side over apical to basolateral side in human Caco-2 cells incubated for 2 hrs by UPLC/MS analysis; assay type: ADME, cell-based
# [23] = Stability of compound in PBS at pH 7.4 assessed as half-life measured after 48 hrs by UPLC-MS analysis; assay type: physicochemical
# [24] = Stability of compound in PBS at pH 5 assessed as half-life measured after 48 hrs by UPLC-MS analysis; assay type: physicochemical
# [25] = Stability of compound in PBS at pH 3 assessed as half-life measured after 48 hrs by UPLC-MS analysis; assay type: physicochemical
# [26] = Stability of compound in SGF assessed as half-life measured after 24 hrs by UPLC-MS analysis; assay type: ADME
# [27] = Cmax in C57BL/6 mouse at 50 mg/kg, po measured after 144 hrs by LC-MS/MS analysis; assay type: ADME, organism-based; conditions: in vivo
# [28] = Tmax in C57BL/6 mouse at 50 mg/kg, po measured after 144 hrs by LC-MS/MS analysis; assay type: ADME, organism-based; conditions: in vivo
# [29] = AUC in C57BL/6 mouse at 50 mg/kg, po measured after 144 hrs by LC-MS/MS analysis; assay type: ADME, organism-based; conditions: in vivo
# [30] = Elimination half-life in C57BL/6 mouse at 50 mg/kg, po measured after 144 hrs by LC-MS/MS analysis; assay type: ADME, organism-based; conditions: in vivo, read-out: beta t1/2 (converted)
# [31] = Drug concentration in C57BL/6 mouse brain at 50 mg/kg, po measured after 144 hrs by LC-MS/MS analysis; assay type: ADME, organism-based; conditions: read-out: Ct
# [32] = Clearance in C57BL/6 mouse at 50 mg/kg, po measured after 144 hrs by LC-MS/MS analysis; assay type: ADME, organism-based; conditions: in vivo
# [33] = Cmax in Sprague-Dawley rat at 6 mg/kg, iv measured after 45.3 hrs by LC/MS analysis; assay type: ADME, organism-based; conditions: in vivo
# [34] = Oral bioavailability in Sprague-Dawley rat at 50 mg/kg measured after 45.3 hrs by LC/MS analysis; assay type: ADME, organism-based; conditions: in vivo
# [35] = Toxicity in Sprague-Dawley rat at 50 mg/kg, po measured after 45.3 hrs; assay type: organism-based; conditions: in vivo
# [36] = test system: Trypanosoma brucei rhodesiense; test: Antitrypanosomal activity against Trypanosoma brucei rhodesiense STIB900 infected in NMRI mouse model assessed as survival at 50 mg/kg, po pre-infected for 3 days followed by compound administration for 4 days and measured 60 days post infection (reference value: 7 day); assay type: functional; conditions: time 57 day
# [37] = test system: Trypanosoma congolense; test: Antitrypanosomal activity against Trypanosoma congolense STIB 736/IL-1180 infected in NMRI mouse model assessed as survival at 50 mg/kg, ip administrated […] starting from day 7 to day 10 post infection (reference value: 11 day); assay type: functional
# [38] = test system: Trypanosoma brucei brucei; test: Antitrypanosomal activity against Trypanosoma brucei brucei 427 assessed as reduction in parasitemia in presence of fetal bovine serum; assay type: functional, organism-based
# [39] = test system: Trypanosoma brucei brucei; test: Trypanocidal activity against Trypanosoma brucei brucei 427 assessed as reduction in parasitemia at 8 uM incubated for 4 days by clonal dilution based CellTiter-Glo assay; assay type: functional, organism-based; conditions: time 4.0 day
# [40] = test system: Trypanosoma brucei brucei; test: Trypanocidal activity against Trypanosoma brucei brucei 427 assessed as reduction in parasitemia at 0.1 to 1.5 uM incubated for 4 days in presence of nifurtimox by CellTiter-Glo assay; assay type: functional, organism-based; conditions: dose 0.1-1.5 µM, time 4.0 day
smiles,measurement,setting,value
Cc1ccc(-c2nc3ccccc3s2)cc1NC(=O)c1cc([N+](=O)[O-])c(N2CCN(C)CC2)cc1Cl,pEC50,[1],9.00
same,EC50 at 72 h,[2],> 25000 nM
same,half-life at 20 µM,[3],> 4 h
same,solubility at 18 h,[4],≤ 0.3 µM
same,CLint scaled at 20 µM,[5],< 14 mL/min/kg
same,half-life at 20 µM,[6],> 4 h
same,CLint scaled at 20 µM,[7],< 12 mL/min/kg
same,half-life at 20 µM,[8],> 4 h
same,CLint scaled at 20 µM,[9],< 6 mL/min/kg
same,pEC50,[10],8.52
same,pEC50,[11],8.22
same,pEC50,[12],< 4.60
same,pEC50,[13],< 4.60
same,EC50 at 72 h,[14],> 25000 nM
same,half-life,[15],> 24 h
same,half-life,[16],> 24 h
same,half-life,[17],> 24 h
same,"fraction unbound at 18 h, 20 µM",[18],0.009
same,"fraction unbound at 18 h, 20 µM",[19],0.007
same,"fraction unbound at 18 h, 20 µM",[20],0.002
same,Papp at 0.5 h,[21],237 ×10⁻⁶ cm/s
same,efflux ratio at 2 h,[22],1.92
same,half-life,[23],5.7 h
same,half-life,[24],> 24 h
same,half-life,[25],> 24 h
same,half-life,[26],> 24 h
same,Cmax,[27],6.5 µM
same,Tmax,[28],4 h
same,AUC at 144 h,[29],83 µM·h
same,half-life,[30],7 h
same,concentration at 144 h,[31],8 µM
same,CL/F,[32],0.357 mL/min
same,Cmax,[33],> 10 µM
same,bioavailability,[34],14%
same,Activity,[35],Non-Toxic
same,Survival,[36],14 days
same,Survival,[37],21 days
same,Activity,[38],Active
same,Activity,[39],inactive
same,Activity,[40],Active
